Test results taken from PubChem BioAssay AID2765 (Broad Institute, 2010).
pEC50: −log10 of the molar value. Calls of active or inactive are those of the source.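 The calls were made as follows: active = half-maximal concentration for the rise in caspase light signal at or below ten times the top tested dose; inconclusive = flat fit between 30% and 70% activity, or unreliable curve fit; inactive = the rest.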

test system: MEF A1-2A-BIM cells, caspase 3/7 luminescence, 3 h; test: caspase activation in A1-2A-BIM MEF cells, dose response, A1 inhibitor project, cell-based, luminescence, retest (AID 2765)

| Structure (SMILES) | EC50 | pEC50 |
| --- | --- | --- |
| COc1ccccc1C/C(N)=N/OC(=O)c1cccc([N+](=O)[O-])c1 | > 35 µM (inactive) | – |
| COc1ccc(NC(=O)C(NC(C)=O)C(=O)NCc2ccccc2Cl)cc1 (configuration not stated) | > 35 µM (inactive) | – |
| CN(C)C=NC(=O)c1cc(C(=O)c2ccc(Cl)cc2Cl)c[nH]1 | > 35 µM (inactive) | – |
| CN(C)Cc1ccc(O)c(CCc2ccccc2)n1 | > 35 µM (inactive) | – |
| O=C1C2C3C=CC(CO)(O3)C2C(=O)N1c1ccc(-c2ccccc2)cc1 (configuration not stated) | > 35 µM (inactive) | – |
| CCOC(=O)/C(=C\c1ccc(OC)c(OC)c1)C(=O)c1cccnc1 | > 35 µM (inactive) | – |
| CCc1cc(C(=O)OCC(=O)N2CCC(c3ccccc3)=N2)sc1C | > 35 µM (inactive) | – |
| O=C1/C(=C/c2ccc(N3CCOCC3)o2)SC(=Nc2ccccc2)N1CCc1c[nH]c2ccccc12 | – | 5.04 |
| Cc1c(C(c2ccccc2O)c2c(C)n(C)n(-c3ccccc3)c2=O)c(=O)n(-c2ccccc2)n1C | > 35 µM (inactive) | – |
| Cc1n[nH]c(C)c1S(=O)(=O)N1CCC(C(=O)O)CC1 | > 35 µM (inactive) | – |
| CCOC(=O)c1[nH]c2ccccc2c1NC(=S)Nc1cc(C)ccc1C | > 35 µM (inactive) | – |
| CC(C)CC(NC(N)=O)C(=O)OCC(=O)Nc1ccc(SC(F)F)cc1 (configuration not stated) | > 35 µM (inactive) | – |
| CC(C)(C)C#CC(CCc1ccccc1)OS(N)(=O)=O (configuration not stated) | > 35 µM (inactive) | – |
| O=C(NCCO)C(=O)Nc1cc2c3c(c1)CCN3C(=O)CC2 | > 35 µM (inactive) | – |
| COc1ccc(-c2nc(NC(=O)c3n[nH]c(=O)c4ccccc34)sc2C)cc1 | > 35 µM (inactive) | – |
| c1ccc2c(CNc3ccc(CNc4ncn[nH]4)cc3)cccc2c1 | > 35 µM (inactive) | – |
| CCOC(=O)COc1ccc(S(=O)(=O)N2CCN(c3ccc(OC)cc3)CC2)cc1 | > 35 µM (inactive) | – |
| CC(=O)OC[C@]12CC[C@H]3[C@@](C)(CC[C@H]4C(C)(C)CCC[C@]34C)[C@@H]1C[C@@H](C1=CC(=O)O[C@@H]1OC(C)=O)O2 | – | 5.30 |
| CCCOC(=O)c1[nH]c2c(c1C)C(=O)CC(c1cccs1)C2 (configuration not stated) | > 35 µM (inactive) | – |
| CCCNC(=O)c1ccc(COc2ccc(Cl)cc2)o1 | > 35 µM (inactive) | – |
| O=C(CSc1ncccc1C(=O)O)NC1CCCCC1 | > 35 µM (inactive) | – |
| CCCN1C(=O)C(=O)c2cc(C)ccc21 | > 35 µM (inactive) | – |
| O=[N+]([O-])c1ccc(N2CCCC2)c(F)c1Br | > 35 µM (inactive) | – |
| NC(=O)c1ccc(NC(=O)CSc2nnc(C3CC3)n2C2CC2)cc1 | > 35 µM (inactive) | – |
| COc1ccccc1CCNC(C)CCc1ccc(O)cc1 (configuration not stated) | > 35 µM (inactive) | – |

| Structure (SMILES) | EC50 | pEC50 |
| --- | --- | --- |
| O=C(CCCCCn1c(=S)[nH]c2ccsc2c1=O)NC1CCCCC1 | > 35 µM (inactive) | – |
| CCN(C[C@H]1N[C@@](CC)(C(=O)OC)[C@H]2C(=O)N(Cc3ccccc3)C(=O)[C@@H]12)C(=O)c1ccc(F)cc1 | > 35 µM (inactive) | – |
| COc1ccc(-c2cc3ccccc3oc2=O)cc1NC(=S)NC(=O)c1ccc2c(c1)OCCO2 | – | 5.17 |
| CCc1ccc(Nc2n[n+](-c3ccccc3)c(/C=C/c3ccccc3)s2)cc1 | – | 4.96 |
| Cc1cc(-c2onc(C)c2C(=O)Nc2ccc(C(F)(F)F)cc2)no1 | > 35 µM (inactive) | – |
| CC1Cc2ccccc2N1C(=O)c1ccc2c(c1)nnn2C (configuration not stated) | > 35 µM (inactive) | – |
| CN1CCN(CCNC(=O)Nc2ccc(Cl)cc2)CC1 | > 35 µM (inactive) | – |
| CCCCC1CCC(C(=O)N(CC(C)C)c2c(N)n(Cc3ccccc3)c(=O)[nH]c2=O)CC1 (configuration not stated) | – | 5.25 |
| CCOC(=O)C1=NOC(COc2ccccc2C=O)C1 (configuration not stated) | > 35 µM (inactive) | – |
| COC(=O)c1ccc(C(=O)OC)c(NC(=O)CSc2ccccn2)c1 | > 35 µM (inactive) | – |
| O=C(c1ccco1)N1CCCN(Cc2nc(-c3ccc4c(c3)OCO4)no2)CC1 | > 35 µM (inactive) | – |
| O=C(NCCc1ccccc1)C(c1cccs1)N(C(=O)CCl)c1ccc(Cl)cc1 (configuration not stated) | – | 5.10 |
| COC(=O)Cc1csc(/N=C/c2c(O)n(-c3cccc(C(F)(F)F)c3)c(=O)c3ccccc23)n1 | – | 5.24 |
| O=C(NCc1ccccc1)c1cncc(Br)c1 | > 35 µM (inactive) | – |
| Cc1ccc(OCC(O)CN2CCN(CCO)CC2)c(C)c1 (configuration not stated) | > 35 µM (inactive) | – |
| Oc1cc2c(cc1CN1CCN(c3ncccn3)CC1)OCO2 | > 35 µM (inactive) | – |
| CC(C)CC(=O)c1c[nH]c(C(=O)NCc2ccccc2)c1 | > 35 µM (inactive) | – |
| CS(=O)(=O)c1ncc(Cl)c(C(=O)Nc2ccc(N3CCOCC3)cc2)n1 | > 35 µM (inactive) | – |
| Cc1ccc(Sc2ncccc2C(=O)NCc2cc([N+](=O)[O-])ccc2O)cc1C | > 35 µM (inactive) | – |
| CCOC(=O)c1ccc(-c2ccc(/C=N/NC(=O)CN(c3cccc(C)c3)S(C)(=O)=O)o2)cc1 | – | 4.62 |
| CCOC(=O)C(C(=O)OCC)c1cc(Br)c2noc3c2c1C(=O)c1ccccc1-3 | > 35 µM (inactive) | – |
| Cc1cc(Cl)ccc1OCC(=O)OCC(=O)c1c(N)n(C)c(=O)n(C)c1=O | > 35 µM (inactive) | – |
| CC(C)Oc1ccc(C(=O)OCC(=O)NC2CCCCCC2)cc1 | > 35 µM (inactive) | – |
| COc1ccc(/C=C2\SC(=O)N(CCC(=O)N(C)C3CCS(=O)(=O)C3)C2=O)cc1 (configuration not stated) | > 35 µM (inactive) | – |
| CN1CCN(c2nccc3c2ncn3C)CC1 | > 35 µM (inactive) | – |

| Structure (SMILES) | EC50 | pEC50 |
| --- | --- | --- |
| CCSc1ccc(-c2nn(-c3ccccc3)cc2/C=C(/C#N)C(=O)NC)cc1 | > 35 µM (inactive) | – |
| CCc1ccc(C2C3=C(CC(C)(C)CC3=O)Nc3c2c(=O)[nH]c2nc(C)nn32)cc1 (configuration not stated) | > 35 µM (inactive) | – |
| COc1cc(SC#N)ccc1N=Cc1c(C)[nH]n(-c2ccc(C)cc2)c1=O | > 35 µM (inactive) | – |
| O=C(Cn1c(=O)c2cccn2c2cccnc21)N1CCN(c2ccc(Cl)cc2)CC1 | > 35 µM (inactive) | – |
| COc1ccccc1C(=O)Nc1ccnn1C1CCN(Cc2cn(C)c3ccccc23)CC1 | > 35 µM (inactive) | – |
| COCCCN(C(=O)Nc1ccccc1)C(C)c1ccncc1 (configuration not stated) | > 35 µM (inactive) | – |
| COc1cc2ncnc(NCc3ccc(F)cc3)c2cc1OC | > 35 µM (inactive) | – |
| COc1cc(-c2nnc(NC(=O)CCS(=O)(=O)c3ccc(F)cc3)o2)cc(OC)c1OC | > 35 µM (inactive) | – |
| COc1ccc(OC)c(CNc2ccc([N+](=O)[O-])cc2C)c1 | > 35 µM (inactive) | – |
| C#CCOCCOCCOCCNc1nc(N2CCN(C(=O)[C@H](CCCCN)n3cc(CCCC)nn3)CC2)nc(N2CCN(C(=O)[C@H](CCCCN)n3cc(CCC(=O)O)nn3)CC2)n1 | > 35 µM (inactive) | – |
| CCCCCCCC/C=C\CCCCCCCC(=O)NCCc1ccc(O)c(O)c1 | – | 5.09 |
| CN(CC(=O)Nc1ccccc1Cl)CC(=O)Nc1cccc2ccccc12 | > 35 µM (inactive) | – |
| CCc1cc(=O)oc2cc(C)cc(OCC(=O)NC3CCN(Cc4ccccc4)CC3)c12 | > 35 µM (inactive) | – |
| CCOC(=O)c1cccc(NC(=O)CN(c2ccc(C)cc2)S(=O)(=O)c2c(C)noc2C)c1 | > 35 µM (inactive) | – |
| Nc1ccccc1SC(C[N+](=O)[O-])c1ccccc1 (configuration not stated) | > 35 µM (inactive) | – |
| COc1ccc(NC(=O)CN(C)C(=O)/C=C/c2ccc(S(=O)(=O)N3CCCCCC3)cc2)cc1 | > 35 µM (inactive) | – |
| O=c1c(Cl)c(Cl)cnn1Cc1ccccc1Cl | > 35 µM (inactive) | – |
| O=C(c1ccccc1)N1CCN(S(=O)(=O)c2ccccc2)CC1 | > 35 µM (inactive) | – |
| O=C(Cn1c(C(F)(F)F)nc2ccccc21)N=Nc1c(O)[nH]c2ccc(Br)cc12 | – | 4.56 |
| O=C(CSc1cccc[n+]1[O-])NC1CCCCC1 | > 35 µM (inactive) | – |
| CSC(SC)=C(C#N)C(=O)c1ccccc1 | > 35 µM (inactive) | – |
| CC1=C/C(=N\OS(=O)(=O)c2ccccc2)C(C)=CC1=O | > 35 µM (inactive) | – |
| COc1cc2c(cc1OC)C(c1ccccc1Br)NC(=O)C2 (configuration not stated) | > 35 µM (inactive) | – |
| Cc1cccc(C)c1NC(=O)C(Cl)C(=O)c1ccccc1 (configuration not stated) | > 35 µM (inactive) | – |
| CC1Cc2ccccc2N1C(=O)C1CCN(S(=O)(=O)Cc2ccccc2)CC1 (configuration not stated) | > 35 µM (inactive) | – |

| Structure (SMILES) | EC50 | pEC50 |
| --- | --- | --- |
| COc1ccc(S(=O)(=O)Nc2c(C)n(C)n(-c3ccccc3)c2=O)cc1 | > 35 µM (inactive) | – |
| COc1ccccc1CN1CC(C(=O)NCCN2CCNC2=O)CCC1=O (configuration not stated) | > 35 µM (inactive) | – |
| CCCNC(=O)c1ccc2c(=O)c(O)c(-c3ccsc3)[nH]c2c1 | > 35 µM (inactive) | – |
| Cc1ccc(NC(=O)CCN2CC(C)OC(C)C2)cc1C (configuration not stated) | > 35 µM (inactive) | – |
| COc1ccc(S(=O)(=O)N2CCC(C(=O)N[C@@H](C)C(=O)NCc3ccncc3)CC2)cc1 | > 35 µM (inactive) | – |
| CC(C)(C)C(=O)CNS(=O)(=O)c1ccc(S(=O)(=O)NC2CC2)cc1 | > 35 µM (inactive) | – |
| Cc1cc(C)cc(N=Cc2c(O)c3ccccc3oc2=O)c1 | > 35 µM (inactive) | – |
| CN(C(=O)c1ccc(NC(=O)C2CCCN(C(=O)OC(C)(C)C)C2)cc1)C1CC1 (configuration not stated) | > 35 µM (inactive) | – |
| Cn1cnc([N+](=O)[O-])c1S(=O)(=O)c1cccc(Cl)c1 | > 35 µM (inactive) | – |
| CCC(Sc1nc2cc3c(cc2c(=O)n1Cc1ccco1)OCO3)C(=O)Nc1cccc(OC)c1 (configuration not stated) | > 35 µM (inactive) | – |
| Cc1ccc(S(=O)(=O)NCCN2CCOCC2)cc1 | > 35 µM (inactive) | – |
| CC(C)(C)NC(=O)NC(=O)COC(=O)CNS(=O)(=O)/C=C/c1ccccc1 | > 35 µM (inactive) | – |
| CC1CCCN(C(=O)CN2C(=O)C(C)Oc3ccccc32)C1 (configuration not stated) | > 35 µM (inactive) | – |
| O=C(CSc1ccc2ccccc2c1)NCCc1ccc(O)c(O)c1 | > 35 µM (inactive) | – |
| NS(=O)(=O)c1ccc(CCNC(=O)CN2CCN(S(=O)(=O)c3ccccc3F)CC2)cc1 | > 35 µM (inactive) | – |
| Cc1cccc(NC(=O)CSc2nc(C)c(CC(=O)c3ccc(Br)cc3)c(C)c2C#N)c1C | > 35 µM (inactive) | – |
| CCOCCOC(=O)c1[nH]c2c(c1C)C(=O)CC(c1cccs1)C2 (configuration not stated) | > 35 µM (inactive) | – |
| CCCNC(=O)C(Cc1ccccc1F)NC(=O)c1ccccn1 (configuration not stated) | > 35 µM (inactive) | – |
| CC1COc2ccccc2N1C(=O)c1ccc(Cl)cc1 (configuration not stated) | > 35 µM (inactive) | – |
| CC(C)=C1C2C=CC1C1C(=O)N(c3ccc4c(c3)OCO4)C(=O)C21 (configuration not stated) | > 35 µM (inactive) | – |
| Cc1ccc(NC(=O)CCN2CCOCC2)cc1C | > 35 µM (inactive) | – |
| O=C(/C=C/c1ccc(O)cc1)c1ccc(O)cc1O | > 35 µM (inactive) | – |
